Read-outs that look alike come from different tables or passages of the source. Each block holds one compound with its values, some of them ahead of it.
Columns and labels:
[1] = sodium carbonate as pH modifier candidate in C10 tablets, oral
Protocol: On top of elevating the pH, the pH-modifying excipient needs to ensure manufacturability of tablets while being compatible with the API in the formulation. An array of alkaline agents capable of increasing the pH were screened (Figure S2) by addition of the pH modifier in 20 mL of acidic media (0.1 M HCl) with 0.1 M KCl, and 10 mg/mL of C10 at 37 °C, which is close to the physiological condition of experimental animals when C10 tablet formulation is dosed. The volume and concentration of HCl and KCl were selected to replicate the gastric in vivo conditions, whereas C10 was added to mimic the intrinsic buffer capacity of the PE present in the tablet.

[2] = cited from earlier work
Text: Given the negative impact of low gastric pH on both in vitro and in vivo performance of C10-based tablets, the use of a pH modifier was investigated to mitigate the acidity of the human stomach. Since C10 is an ionizable compound known to form different colloidal structures dependant on pH, selection of an appropriate pH modifier is paramount. The resulting pH should enable fast disintegration and dissolution of the formulation, whilst securing that the colloidal species formed facilitate the permeation enhancing effect needed for absorption of the macromolecule. Monomeric C10 is presumed to b ...

[3] = CAC and CMC determinations by dynamic light scattering; format: physicochemical; conditions: DLS at 25 °C
Protocol: Stock solutions of sodium caprate were made in the individual buffers. 10–100 mM phosphate buffer was used for most sample series, while 50 mM sodium borate was used for pH 9 [31]. In the case of meglumine a 20 mM Tris buffer pH 8.5 was used. Samples were prepared with and without 20 mg/ml meglumine. All samples were pH adjusted and filtered through 0.22 μm (Millipore 6830-0021). Dynamic light scattering (DLS) data was acquired at 25 °C by adding 20–25 µL of each sample in triplicates to a 384 well plate Corning® 3540 (Corning, NY, USA). The plate was centrifuged for 5 min at 1200 rpm before analysis to remove any air bubbles from the wells. […] A DynaPro™ Plate Reader and Dynamics™ software version 7 (Wyatt Technology Corp., Santa Barbara, CA, USA) was used to collect and analyze the data.

[4] = no reference given; cited from earlier work
Text: Meglumine was selected due to its capability to both raise the pH to the desired level and produce tablets with the required quality. […] In addition, it is an approved pharmaceutical excipient marketed in several oral dosage forms such as telmisartan, repaglinide and rosuvastatine tablets. To identify the most suitable meglumine amount for C10-based tablets, a systematic screening ...

[5] = Screening of the meglumine amount in acidic medium containing C10; format: physicochemical; conditions: 37 °C, pH meter
Protocol: In addition, it is an approved pharmaceutical excipient marketed in several oral dosage forms such as telmisartan, repaglinide and rosuvastatine tablets. To identify the most suitable meglumine amount for C10-based tablets, a systematic screening was conducted in 20 mL acidic medium (KCl 0.1 M/ HCl 0.025 M, 10 mL + 10 mL of MQ water) reflecting the composition of dog gastric fluid after dosing of water. The medium contained either 50, 100, 200, or 300 mg of C10 to account for different enhancer amounts, and the evolution of pH against added meglumine amount was monitored (Table 1). Since a final pH above 8.5 around the tablet in the stomach is desirable for C10 dissolution and to achieve the single-phased micellar system with high monomeric C10 availability, the corresponding meglumine amount needed to reach pH 8.5 was set as the lower limit for formulation development.
A stock solution of KCl 0.1 M/ HCl 0.025 M, pH = 1.6 was prepared. 10mL of this solution was added to 10 mL of MQ water in tubes containing either 50, 100, 200, or 300 mg of C10 granules. Each solution was gently stirred at 37 °C. Meglumine was added in amounts beyond the calculated neutralization point. pH was recorded using a pH meter PHM 200 (Mettler Toledo). Turbidity/clarity was visually assessed for records.

[6] = 50 mg C10 / 20 mL acidic medium (10 mL KCl 0.1 M/HCl 0.025 M pH 1.6 + 10 mL MQ water)
[7] = 200 mg C10 / 20 mL acidic medium (10 mL KCl 0.1 M/HCl 0.025 M pH 1.6 + 10 mL MQ water)
[8] = 300 mg C10 / 20 mL acidic medium (10 mL KCl 0.1 M/HCl 0.025 M pH 1.6 + 10 mL MQ water)

SMILES: O=C([O-])[O-].[Na+].[Na+] [Sodium carbonate]
- adverse events in dogs [1]: vomiting

- critical aggregate concentration (CAC) of C10 vesicles ([3]; pH lower than approximately 8.5, phosphate buffer, triplicates): around 15 mM
SMILES: CCCCCCCCCC(=O)[O-].[Na+] [Formulation C10, Sodium caprate]
- critical micelle concentration (CMC) ([2]; pH 9.1): 81 mM
- critical micelle concentration (CMC) ([2]; pH 11.8): 102 mM

SMILES: CNC[C@H](O)[C@@H](O)[C@H](O)[C@H](O)CO [meglumine, Meglumine]
- pKa [4]: 9.6
- Amount of meglumine (mg) to pH 8.5 [5, 6]: 15 mg
- Amount of meglumine (mg) to pH 9.5 [5, 6]: 25 mg
- Amount of meglumine (mg) to pH 9.5 ([5]; 100 mg C10 / 20 mL acidic medium (10 mL KCl 0.1 M/HCl 0.025 M pH 1.6 + 10 mL MQ water)): 60 mg
- Amount of meglumine (mg) to pH 8.5 [5, 7]: 60 mg
- Amount of meglumine (mg) to pH 9.5 [5, 7]: 100 mg
- Amount of meglumine (mg) to pH 8.5 [5, 8]: 90 mg
- Amount of meglumine (mg) to pH 9.5 [5, 8]: 125 mg
- impact of meglumine on the CMC of C10 (in words) ([3]; 20 mM Tris buffer pH 8.5, with and without 20 mg/ml meglumine): did not show any impact
